This is an account of results in US10189841B2, “Purinones as ubiquitin-specific protease 1 inhibitors” (Forma Therapeutics, Inc., priority 2015, dated 2019).

The structures appear in SMILES notation.

Chain of USP1 (construct USP1 (I-785, GG670, 671AA)/UAF1 (I-677)-Flag) (O94782 whole entry G670A/G671A): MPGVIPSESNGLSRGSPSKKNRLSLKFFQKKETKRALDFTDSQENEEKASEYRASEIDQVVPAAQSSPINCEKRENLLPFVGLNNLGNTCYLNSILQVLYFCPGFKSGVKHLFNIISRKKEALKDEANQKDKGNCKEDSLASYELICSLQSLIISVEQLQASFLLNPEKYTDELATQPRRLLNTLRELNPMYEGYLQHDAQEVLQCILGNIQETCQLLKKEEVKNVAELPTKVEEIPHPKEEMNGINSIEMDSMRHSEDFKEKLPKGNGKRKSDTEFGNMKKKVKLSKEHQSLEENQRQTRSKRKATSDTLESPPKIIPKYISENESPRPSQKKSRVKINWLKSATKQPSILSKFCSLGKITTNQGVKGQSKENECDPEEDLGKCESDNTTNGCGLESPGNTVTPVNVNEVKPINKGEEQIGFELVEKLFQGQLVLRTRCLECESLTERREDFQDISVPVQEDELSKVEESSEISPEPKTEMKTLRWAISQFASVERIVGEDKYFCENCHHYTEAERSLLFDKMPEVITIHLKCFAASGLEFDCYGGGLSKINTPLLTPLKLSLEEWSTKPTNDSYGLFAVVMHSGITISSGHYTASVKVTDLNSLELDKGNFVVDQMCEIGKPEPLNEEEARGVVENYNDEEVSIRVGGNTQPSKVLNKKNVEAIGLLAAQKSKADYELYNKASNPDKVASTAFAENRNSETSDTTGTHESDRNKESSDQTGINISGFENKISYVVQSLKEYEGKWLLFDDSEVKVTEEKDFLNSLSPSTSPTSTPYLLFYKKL
Chain of USP1 (construct USP1 (I-785, GG670, 671AA)/UAF1 (I-677)-Flag) (Q8TAF3 whole entry partner): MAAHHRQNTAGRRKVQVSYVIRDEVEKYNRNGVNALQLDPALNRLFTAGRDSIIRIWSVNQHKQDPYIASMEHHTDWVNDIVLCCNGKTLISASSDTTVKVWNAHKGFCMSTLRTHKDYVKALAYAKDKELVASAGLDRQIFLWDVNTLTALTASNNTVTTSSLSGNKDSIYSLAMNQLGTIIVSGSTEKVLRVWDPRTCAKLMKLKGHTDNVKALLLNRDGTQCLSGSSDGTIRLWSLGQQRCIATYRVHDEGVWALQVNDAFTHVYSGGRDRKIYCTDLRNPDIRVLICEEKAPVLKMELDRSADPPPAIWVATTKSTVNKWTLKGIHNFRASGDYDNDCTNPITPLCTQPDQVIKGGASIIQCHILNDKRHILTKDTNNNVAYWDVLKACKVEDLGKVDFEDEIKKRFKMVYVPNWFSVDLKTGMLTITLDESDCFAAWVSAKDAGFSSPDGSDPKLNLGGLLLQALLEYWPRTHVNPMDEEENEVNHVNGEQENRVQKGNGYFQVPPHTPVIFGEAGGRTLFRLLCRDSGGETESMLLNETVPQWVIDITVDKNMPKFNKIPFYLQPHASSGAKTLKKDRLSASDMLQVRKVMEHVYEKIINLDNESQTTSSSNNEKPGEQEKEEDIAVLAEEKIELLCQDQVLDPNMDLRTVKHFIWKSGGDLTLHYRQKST

The target in the assay is USP1 (construct USP1 (I-785, GG670, 671AA)/UAF1 (I-677)-Flag) (Homo sapiens (Human), UniProt O94782, G670A/G671A). Briefly: Ubiquitin-Rhodamine 110 assay for USP1 activity. It is filed as biochemical. The conditions noted are these: USP1/UAF1 25 pM, Ub-Rh110 25 nM, 30 min preincubation. The method in brief:
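Two formats with the USP1/UAF1 complex and 25 nM ubiquitin-rhodamine 110 in pH 8.0 Tris buffer with calcium, glutathione and detergent. Single-point screening used 10 µM, 100 pM enzyme and 45 min. Inhibition was set against no-enzyme and DMSO wells.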
For the compound `CC(C)c1ccccc1-c1ncc2[nH]c(=O)n(Cc3ccc(-n4cc(C5CCNCC5)cn4)cc3)c2n1` [Compound I-221, 2-(2-isopropylphenyl)-9-(4-(4-(piperidin-4-yl)-1H-pyrazol-1-yl)benzyl)-7,9-dihydro-8H-purin-8-one], the IC50 was in the range of 200 to 2000 nM.

For the compound `CC(C)c1ccccc1-c1ncc2[nH]c(=O)n(Cc3ccc(-n4cccn4)cc3F)c2n1` [Compound I-167, 9-(2-fluoro-4-(1H-pyrazol-1-yl)benzyl)-2-(2-isopropylphenyl)-7,9-dihydro-8H-purin-8-one], the IC50 lay within 200 to 2000 nM.

Turning to `COC[C@H]1CCCN1C(=O)c1ccc(Cn2c(=O)[nH]c3cnc(-c4ccccc4C(C)C)nc32)cc1` [Compound I-403, (R)-2-(2-isopropylphenyl)-9-(4-(2-(methoxymethyl)pyrrolidine-1-carbonyl)benzyl)-7,9-dihydro-8H-purin-8-one], the IC50 was 200 to 2000 nM.

In the case of `CC(C)c1ccccc1-c1ncc2[nH]c(=O)n(Cc3ccc(C(=O)N4CCC(F)(F)CC4)cc3)c2n1` [Compound I-388, 9-(4-(4,4-difluoropiperidine-1-carbonyl)benzyl)-2-(2-isopropylphenyl)-7,9-dihydro-8H-purin-8-one], the IC50 was in the range of 200 to 2000 nM.

Compound `CC(C)c1ccccc1-c1ncc2[nH]c(=O)n(Cc3ccc(C(=O)N4CC5(CCOC5)C4)cc3)c2n1` [Compound I-394, 9-(4-(6-oxa-2-azaspiro[3.4]octane-2-carbonyl)benzyl)-2-(2-isopropylphenyl)-7,9-dihydro-8H-purin-8-one] came in with a concentration for half-maximal inhibition (IC50) of 200 to 2000 nM.

In the case of `CC(C)c1ccccc1-c1ncc2[nH]c(=O)n(Cc3ccc(C(=O)N4CC[C@H](O)C4)cc3)c2n1` [Compound I-378, (S)-9-(4-(3-hydroxypyrrolidine-1-carbonyl)benzyl)-2-(2-isopropylphenyl)-7,9-dihydro-8H-purin-8-one], the IC50 is 200 to 2000 nM.

`Cc1noc(C)c1-c1ccc(Cn2c(=O)[nH]c3cnc(-c4ccccc4C(C)C)nc32)cc1` [Compound I-253, 9-(4-(3,5-dimethylisoxazol-4-yl)benzyl)-2-(2-isopropylphenyl)-7,9-dihydro-8H-purin-8-one] showed an IC50 of 200 to 2000 nM.

Compound `Cc1nnn(-c2ccc(Cn3c(=O)[nH]c4cnc(-c5ccccc5C(C)C)nc43)cc2)n1` [Compound I-168, 2-(2-isopropylphenyl)-9-(4-(5-methyl-2H-tetrazol-2-yl)benzyl)-7,9-dihydro-8H-purin-8-one] yielded an IC50 of 50 to 200 nM.

On to `CC(=O)N1CCN(C(=O)c2ccc(Cn3c(=O)[nH]c4cnc(-c5ccccc5C(C)C)nc43)cc2)CC1` [Compound I-383, 9-(4-(4-acetylpiperazine-1-carbonyl)benzyl)-2-(2-isopropylphenyl)-7,9-dihydro-8H-purin-8-one], for which the IC50 is 200 to 2000 nM.

The compound `CC(C)c1ccccc1-c1ncc2[nH]c(=O)n([C@H](C)c3ccc(-n4nccn4)cc3)c2n1` [Compound I-142, (R)-9-(1-(4-(2H-1,2,3-triazol-2-yl)phenyl)ethyl)-2-(2-isopropylphenyl)-7,9-dihydro-8H-purin-8-one] returned an IC50 of 200 to 2000 nM.

Regarding `CCN(C)c1ncccc1-c1ncc2[nH]c(=O)n(Cc3ccc(-c4nc(C(F)(F)F)cn4C)cc3)c2n1` [Compound I-331, 2-(2-(ethyl(methyl)amino)pyridin-3-yl)-9-(4-(1-methyl-4-(trifluoromethyl)-1H-imidazol-2-yl)benzyl)-7,9-dihydro-8H-purin-8-one], the IC50 is below 50 nM.

For `CC(C)c1ccccc1-c1ncc2[nH]c(=O)n(Cc3ccc(-n4c(=O)ccn4C)cc3)c2n1` [Compound I-205, 2-(2-isopropylphenyl)-9-(4-(2-methyl-5-oxo-2,5-dihydro-1H-pyrazol-1-yl)benzyl)-7,9-dihydro-8H-purin-8-one], the IC50 lay in the range of 50 to 200 nM.

`Cc1cc(C)n(-c2ccc([C@@H](C)n3c(=O)[nH]c4cnc(-c5ccccc5C(C)C)nc43)cc2)n1` [Compound I-190, (R)-9-(1-(4-(3,5-dimethyl-1H-pyrazol-1-yl)phenyl)ethyl)-2-(2-isopropylphenyl)-7,9-dihydro-8H-purin-8-one] came in with a concentration for half-maximal inhibition (IC50) below 50 nM.

What is called IC50 is the concentration that inhibits the measured activity by half.
